# From US20170253601A1, “Substituted Pyrrolidine Compounds” (EPIZYME, INC., priority 2014, published 2017)
# Target: T1, human SMYD3 (Homo sapiens, UniProt Q9H7B4)
# T1 construct: Expressed full-length human His-tagged SMYD3 protein was purified from cell paste; His6 (cleaved yes); TEV and SUMO cleavage sites (cleaved yes); made in house; host or cells: E. coli BL21 codonplus RIL
# T1 sequence (Q9H7B4 1-428): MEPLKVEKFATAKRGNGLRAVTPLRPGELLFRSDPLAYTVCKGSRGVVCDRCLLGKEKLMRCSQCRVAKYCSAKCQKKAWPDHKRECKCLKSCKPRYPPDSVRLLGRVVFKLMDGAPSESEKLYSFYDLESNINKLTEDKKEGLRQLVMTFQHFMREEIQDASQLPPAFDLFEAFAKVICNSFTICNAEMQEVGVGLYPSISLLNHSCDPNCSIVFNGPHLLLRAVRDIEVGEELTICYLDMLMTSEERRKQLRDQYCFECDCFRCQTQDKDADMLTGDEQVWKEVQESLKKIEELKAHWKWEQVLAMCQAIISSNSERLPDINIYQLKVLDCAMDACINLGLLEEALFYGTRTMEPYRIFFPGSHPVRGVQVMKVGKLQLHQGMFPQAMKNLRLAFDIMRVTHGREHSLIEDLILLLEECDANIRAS
# Experiment: SMYD3 Biochemical Assay (3H-SAM, MEKK2 protein substrate, SPA)
# Conditions: Table 1; average of n = 1 to n = 50; read-out: SMYD3 Biochem IC50
# Source text: S-adenosylmethionine (SAM), S-adenosylhomocysteine (SAH), Tris, Tween20, dimethylsulfoxide (DMSO), bovine skin gelatin (BSG), and Tris(2-carboxyethyl)phosphine hydrochloride solution (TCEP) were purchased from Sigma-Aldrich at the highest level of purity possible. ^3H-SAM was purchase from American Radiolabeled Chemicals with a specific activity of 80 Ci/mmol. 384-well opaque white OptiPlates and SPA beads (Perkin Elmer, catalog # RPNQ0013) were purchased from PerkinElmer.
# N-terminally GST-tagged MEKK2 (MAP3K2) protein corresponding to reference sequence AAF63496.3 was purchased from Life Technologies (catalog # PV4010). This protein was expressed in High Five insect cells and purified to >85% purity. Protein identity was confirmed by MS/MS analysis after proteolytic digestion. The protein sequence used was:
# Full-length human SMYD3 isoform 1 (BAB86333) was inserted into a modified pET21b plasmid containing a His6 tag and TEV and SUMO cleavage sites. Because two common variants of SMYD3 exist in the population, site directed mutagenesis was subsequently performed to change amino acid 13 from an asparagine to a lysine, resulting in plasmid pEPZ533. A lysine at position 13 conforms to the more commonly occurring sequence (NP_001161212).
# E. coli (BL21 codonplus RIL strain, Stratagene) were transformed with plasmid pEPZ553 by mixing competent cells and plasmid DNA and incubating on ice for 30 minutes followed by heat shock at 42° C. for 1 minute and cooling on ice for 2 minutes. Transformed cells were grown and selected on LB agar with 100 μg/mL ampicillin and 17 μg/mL chloramphenicol at 37° C. overnight. A single clone was used to inoculate 200 mL of LB medium with 100 μg/mL ampicillin and 17 μg/mL chloramphenicol and incubated at 37° C. on an orbital shaker at 180 rpm. Once in log growth, the culture was diluted 1:100 into 2 L of LB medium and grown until OD600 was about 0.3 after which the culture was incubated at 15° C. and 160 rpm. Once OD600 reached about 0.4, IPTG was added to a final concentration of 0.1 mM and the cells were grown overnight at 15° C. and 160 rpm. Cells were harvested by centrifugation at 8000 rpm, for 4 minutes at 4° C. and stored at −80° C. for purification.
# Expressed full-length human His-tagged SMYD3 protein was purified from cell paste by Nickel affinity chromatography after equilibration of the resin with Buffer A (25 mM Tris, 200 mM NaCl, 5% glycerol, 5 mM β-mercaptoethanol, pH7.8). The column was washed with Buffer B (Buffer A plus 20 mM imidazole) and His-tagged SMYD3 was eluted with Buffer C (Buffer A plus 300 mM imidazole). The His tag, TEV and SUMO cleavage sites were removed generating native SMYD3 by addition of ULP1 protein at a ratio of 1:200 (ULP1:SMYD3). Imidazole was removed by dialysis overnight in Buffer A. The dialyzed solution was applied to a second Nickel column and the native SMYD3 protein was collected from the column flow-through. The flow-through was dialyzed in Buffer D (25 mM Tris, 5% glycerol, 5 mM β-mercaptoethanol, 50 mM NaCl, pH7.8) and ULP1 was removed using a Q sepharose fast flow column. SMYD3 was eluted in Buffer A and further purified using an S200 size-exclusion column equilibrated with Buffer A. SMYD3 was concentrated to 2 mg/mL with a final purity of 89%.
# The assays were all performed in a buffer consisting of 25 mM Tris-Cl pH 8.0, 1 mM TCEP, 0.005% BSG, and 0.005% Tween 20, prepared on the day of use. Compounds in 100% DMSO (1 ul) were spotted into a 384-well white opaque OptiPlate using a Bravo automated liquid handling platform outfitted with a 384-channel head (Agilent Technologies). DMSO (1 ul) was added to Columns 11, 12, 23, 24, rows A-H for the maximum signal control and 1 ul of SAH, a known product and inhibitor of SMYD3, was added to columns 11, 12, 23, 24, rows I-P for the minimum signal control. A cocktail (40 ul) containing the SMYD3 enzyme was added by Multidrop Combi (Thermo-Fisher). […]
row,SMILES,IC50 [µM]
1,"CN1C[C@H](NC(=O)c2cc(C3CC3)on2)[C@H](c2ccccc2)C1 (racemic) [compound 17, (±)-cis-5-cyclopropyl-N-((1-methyl-4-phenylpyrrolidin-3-yl)isoxazole-3-carboxamide]",56.2
2,"CN1C[C@H](NC(=O)c2cc(C3CC3)on2)[C@@H](c2ccccc2)C1 (racemic) [compound 18, (±)-trans-5-cyclopropyl-N-(1-methyl-4-phenylpyrrolidin-3-yl)isoxazole-3-carboxamide]",50.4
3,"C[C@@H]1C[C@H](NC(=O)c2cc(C3CC3)on2)C(=O)N1c1cnn(C)c1 (racemic) [compound 19, (±)-cis-5-cyclopropyl-N-(5-methyl-1-(1-methyl-1H-pyrazol-4-yl)-2-oxopyrrolidin-3-yl)isoxazole-3-carboxamide]",> 200
4,"C[C@H]1C[C@H](NC(=O)c2cc(C3CC3)on2)C(=O)N1c1cnn(C)c1 (racemic) [compound 20, (±)-trans 5-cyclopropyl-N-(5-methyl-1-(1-methyl-1H-pyrazol-4-yl)-2-oxopyrrolidin-3-yl)isoxazole-3-carboxamide]",> 200
5,"CC(=O)Nc1ccc(S(=O)(=O)N2CC[C@H](NC(=O)c3cc(C4CC4)on3)C2)cc1 [compound 1, (S)-N-(1-((4-acetamido-phenyl)sulfonyl)pyrrolidin-3-yl)-5-cyclopropyl-isoxazole-3-carboxamide]",> 100
6,"CC(=O)Nc1ccc(S(=O)(=O)N2CC[C@@H](NC(=O)c3cc(C4CC4)on3)C2)cc1 [compound 2, (R)-N-(1-((4-acetamido-phenyl)sulfonyl)pyrrolidin-3-yl)-5-cyclopropyl-isoxazole-3-carboxamide]",> 100
7,"O=C(N[C@H]1CCNC1)c1cc(C2CC2)on1 [compound 3, (S)-5-cyclopropyl-N-(pyrrolidin-3-yl)isoxazole-3-carboxamide]",80.3
8,"O=C(N[C@@H]1CCNC1)c1cc(C2CC2)on1 [compound 4, (R)-5-cyclopropyl-N-(pyrrolidin-3-yl)isoxazole-3-carboxamide]",83.7
9,"CN1CCC(NC(=O)c2cc(C3CC3)on2)C1c1ccccc1 (stereo not shown) [compound 5, 5-cyclopropyl-N-(1-methyl-2-phenyl-pyrrolidin-3-yl)isoxazole-3-carboxamide]",55.1
10,"Cc1cc(N2CCC(NC(=O)c3cc(C4CC4)on3)C2=O)n(C)n1 (stereo not shown) [compound 6, 5-cyclopropyl-N-(1-(1,3-dimethyl-1H-pyrazol-5-yl)-2-oxopyrrolidin-3-yl)isoxazole-3-carboxamide]",> 200
11,"CN1CCC(NC(=O)c2cc(C3CC3)on2)C1c1ccc(Cl)c(F)c1 (stereo not shown) [compound 7, N-(2-(4-chloro-3-fluorophenyl)-1-methylpyrrolidin-3-yl)-5-cyclo-propylisoxazole-3-carboxamide]",51.5
12,"O=C(NC1CCN(C2CC2)C1c1ccc(F)c(F)c1)c1cc(C2CC2)on1 (stereo not shown) [compound 8, 5-cyclopropyl-N-(1-cyclopropyl-2-(3,4-difluoro-phenyl)pyrrolidin-3-yl)isoxazole-3-carboxamide]",12.4
13,"CN1CCC(NC(=O)c2cc(C3CC3)on2)C1c1ccc(F)c(F)c1 (stereo not shown) [compound 9, 5-cyclopropyl-N-(2-(3,4-difluorophenyl)-1-methylpyrrolidin-3-yl)isoxazole-3-carboxamide]",67.2
14,"CC1CC(NC(=O)c2cc(C3CC3)on2)CN1c1ccccc1 (stereo not shown) [compound 10, 5-cyclopropyl-N-(5-methyl-1-phenylpyrrolidin-3-yl)isoxazole-3-carboxamide]",53.5
15,"CC1CC(NC(=O)c2cc(C3CC3)on2)C(=O)N1c1ccccc1 (stereo not shown) [compound 11, 5-cyclopropyl-N-(5-methyl-2-oxo-1-phenylpyrrolidin-3-yl)isoxazole-3-carboxamide]",78.1
16,"CC(C)N1CCC(NC(=O)c2cc(C3CC3)on2)C1c1ccc(F)c(F)c1 (stereo not shown) [compound 12, 5-cyclopropyl-N-(2-(3,4-difluorophenyl)-1-isopropylpyrrolidin-3-yl)isoxazole-3-carboxamide]",58.6
17,"CN1CCC(NC(=O)c2cc(C3CC3)on2)C1c1ccc(F)cc1 (stereo not shown) [compound 13, 5-cyclopropyl-N-(2-(4-fluorophenyl)-1-methylpyrrolidin-3-yl)isoxazole-3-carboxamide]",51.9
18,"CN1C(=O)CC(NC(=O)c2cc(C3CC3)on2)C1c1ccc(F)cc1 (stereo not shown) [compound 14, 5-cyclopropyl-N-(2-(4-fluorophenyl)-1-methyl-5-oxopyrrolidin-3-yl)isoxazole-3-carboxamide]",58.5
19,"Cn1ccc(N2CCC(NC(=O)c3cc(C4CC4)on3)C2=O)n1 (stereo not shown) [compound 15, 5-cyclopropyl-N-(1-(1-methyl-1H-pyrazol-3-yl)-2-oxopyrrolidin-3-yl)isoxazole-3-carboxamide]",158
20,"COc1cccc(C2C(NC(=O)c3cc(C4CC4)on3)CCN2C2CC2)c1 (stereo not shown) [compound 16, 5-cyclopropyl-N-(1-cyclopropyl-2-(3-methoxy-phenyl)pyrrolidin-3-yl)isoxazole-3-carboxamide]",77.4
21,"CC1CC(NC(=O)c2cc(C3CC3)on2)CN1Cc1ccccc1 (stereo not shown) [compound 21, N-(1-benzyl-5-methylpyrrolidin-3-yl)-5-cyclopropyl-isoxazole-3-carboxamide]",54.1
22,"CC1CC(NC(=O)c2cc(C3CC3)on2)CN1C1CC1 (stereo not shown) [compound 22, 5-cyclopropyl-N-(1-cyclopropyl-5-methylpyrrolidin-3-yl)isoxazole-3-carboxamide]",47.1
23,"CC1CN(C2CC2)CC1NC(=O)c1cc(C2CC2)on1 (stereo not shown) [compound 23, 5-cyclopropyl-N-(1-cyclopropyl-4-methylpyrrolidin-3-yl)isoxazole-3-carboxamide]",48.5
24,"CC(c1ccccc1)N1CCC(NC(=O)c2cc(C3CC3)on2)C1 (stereo not shown) [compound 24, 5-cyclopropyl-N-(1-(1-phenylethyl)pyrrolidin-3-yl)isoxazole-3-carboxamide]",38.4
25,"O=C(NC1CC(=O)N(c2ccccc2)C1)c1cc(C2CC2)on1 (stereo not shown) [compound 25, 5-cyclopropyl-N-(5-oxo-1-phenylpyrrolidin-3-yl)isoxazole-3-carboxamide]",98.8
26,"O=C(NC1CC(=O)N(Cc2ccccc2)C1)c1cc(C2CC2)on1 (stereo not shown) [compound 26, N-(1-benzyl-5-oxopyrrolidin-3-yl)-5-cyclopropylisoxazole-3-carboxamide]",88.4
27,"O=C(NC1CCN(Cc2ccccc2)C1=O)c1cc(C2CC2)on1 (stereo not shown) [compound 27, N-(1-benzyl-2-oxopyrrolidin-3-yl)-5-cyclopropylisoxazole-3-carboxamide]",> 200
28,"O=C(NC1CCN(c2ccccc2)C1=O)c1cc(C2CC2)on1 (stereo not shown) [compound 28, 5-cyclopropyl-N-(2-oxo-1-phenyl-pyrrolidin-3-yl)isoxazole-3-carboxamide]",94.2
